Read-outs that look alike come from different tables or passages of the source.
Key:
G-CSF promoter = assay: G-CSF promoter/luciferase reporter assay (high-throughput screen I), G21 cells; conditions: for scored as positive in repeat assays (G-CSF): 48 independent luciferase assays, same day; for GCSF fold induction relative to solvent control: transcriptional activators; for GCSF fold induction relative to solvent control / GCSF fold inhibition relative to solvent control: Table 2, 6 h incubation; for GCSF fold inhibition relative to solvent control: transcriptional inhibitors
MMTV promoter = assay: MMTV promoter/luciferase reporter assay (high-throughput screen I, control for specificity), M10 cells; type: cell-based, mouse; conditions: for MMTV fold induction relative to solvent control: transcriptional activators, original high-throughput assay
Protocol: pMluci and pSV2Neo, an antibiotic resistance plasmid (84), were co-transfected into NIH/3T3 mouse fibroblast cells using the calcium phosphate precipitation method (85) with a commercially available kit (Pharmacia, Piscataway N.J.). Two days later, cells were transferred to media containing 0.4 mg/ml G418 and were grown for an additional 10-14 days. G418-resistant clones were isolated by standard methods. Once sufficient cell numbers were obtained, clones were analyzed based on several criteria: constitutive luciferase production, induction of luciferase expression by dexamethasone ([…], Sigma, St. Louis, Mo.), satisfactory attachment to microtiter plates used in the high-throughput screen (see section G) and acceptable standard deviation in multiple luciferase expression assays (see below for assay protocol). This analysis was carried out using the luciferase assay conditions described above. Of the clones which satisfied the above criteria for the high throughput screen, one clone, M10, was selected for use.

hGH promoter = assay: hGH promoter/luciferase reporter assay (high-throughput screen I), 532 cells; type: cell-based, rat; conditions: for hGH fold induction relative to solvent control: transcriptional activators
Excerpt: 6. a GC rat pituitary cell line, transfected with the growth hormone reporter plasmid, designated 532, deposited under ATCC Accession No. CRL 10663.

[1] = Table 2, 6 h incubation, 360 min
[2] = transcriptional inhibitors, Table 2, 6 h incubation

SMILES | MMTV fold induction relative to solvent control (MMTV promoter; Table 2, 6 h incubation) [fold] | GCSF fold induction relative to solvent control (G-CSF promoter) [fold] | hGH fold induction relative to solvent control (hGH promoter; Table 2, 6 h incubation) [fold] | further results
CC(=O)n1ccnc1 [#58] |  |  |  | scored as positive in repeat assays (G-CSF) (G-CSF promoter): scored as positives in every single one of these assays
CN(C)c1ccc2cc3ccc(N(C)C)cc3nc2c1 [#80] |  |  |  | activation of the G-CSF promoter (dose response) (G-CSF promoter; G21 cells): specifically activated the G-CSF promoter; EC50 (G-CSF promoter; read-out: ED50 (concentration of chemical resulting in 50% maximal stimulation), G-CSF reporter cell line G21, range over the three chemicals): 5 to 70 µM
c1ccc(-c2cccc(-c3ccccn3)n2)nc1 [#453] |  |  |  | effect of replacing DMSO by methanol on MMTV activation (MMTV promoter; chemical dissolved in methanol): did not affect its ability to activate the MMTV promoter; MMTV fold induction relative to solvent control (MMTV promoter; [1]): 13.3 fold
CC(=O)N(C)c1ccc(N)cc1 [#1374] |  |  |  | scored as positive in repeat assays (G-CSF) (G-CSF promoter): scored as positives in every single one of these assays
O=NN(O)c1ccccc1 [#1783] |  |  |  | scored as positive in repeat assays (G-CSF) (G-CSF promoter): scored as positive only in half of the 48 repeat assays
CC(=O)c1c(C)cc(NC(C)(C)C)nc1NC(C)(C)C [Chemical 40] | 0.27 | 5.62 | 0.62 | 
CC(=O)c1ccc[nH]1 [Chemical 70] | 0.85 | 0.43 | 9.26 | 
CN(C)c1ccc2cc3ccc(N(C)C)cc3nc2c1 [Chemical 80] | 0.83 | 5.87 | 0.66 | 
CN(C)c1ccc(C(=N)c2ccc(N(C)C)cc2)cc1 [Chemical 183] |  |  |  | MMTV fold inhibition relative to solvent control (MMTV promoter; [2]): 0.70 fold; GCSF fold inhibition relative to solvent control (G-CSF promoter): 0.72 fold; hGH fold inhibition relative to solvent control (hGH promoter; [2]): 4.00 fold
O=C(c1ccccc1)c1ccncc1 [Chemical 209] |  |  |  | MMTV fold inhibition relative to solvent control (MMTV promoter; [2]): 0.81 fold; GCSF fold inhibition relative to solvent control (G-CSF promoter): 6.66 fold; hGH fold inhibition relative to solvent control (hGH promoter; [2]): 1.08 fold
CCOC(=O)N1C(=O)c2ccccc2C1=O [Chemical 237] | 0.62 | 4.77 | 0.06 | 
Cc1c(C(=O)O)c(O)cc2c1C(=O)c1c(O)c([C@@H]3O[C@H](CO)[C@@H](O)[C@H](O)[C@H]3O)c(O)c(O)c1C2=O [Chemical 240] |  |  |  | MMTV fold inhibition relative to solvent control (MMTV promoter; [2]): 0.80 fold; GCSF fold inhibition relative to solvent control (G-CSF promoter): 0.63 fold; hGH fold inhibition relative to solvent control (hGH promoter; [2]): 5.26 fold
ClCCN1CCCCC1 [Chemical 254] | 0.98 | 4.09 | 0.90 | 
NC(=O)N1c2ccccc2CCc2ccccc21 [Chemical 299] | 0.47 | 0.53 | 5.46 | 
CCn1c(=O)[nH]c2ccccc21 [Chemical 322] | 1.12 | 0.60 | 11.18 | 
O=c1c(O)c(-c2ccc(O)c(O)c2)oc2cc(O)ccc12 [Chemical 325] | 1.0 | 0.14 | 5.42 | 
Nc1nc(N)nc(N)n1 [Chemical 364] | 1.07 | 3.67 | 1.18 | 
O=c1c(O)c(-c2ccc(O)cc2O)oc2cc(O)cc(O)c12 [Chemical 371] |  |  |  | MMTV fold inhibition relative to solvent control (MMTV promoter; [2]): 0.89 fold; GCSF fold inhibition relative to solvent control (G-CSF promoter): 11.11 fold; hGH fold inhibition relative to solvent control (hGH promoter; [2]): 0.41 fold
O=C(O)c1ccc2c3c(ncnc13)-c1ccccc1C2=O [Chemical 378] | 0.59 | 4.12 | 0.26 | 
CCN(CC)CCCC(C)Nc1c2ccc(Cl)cc2nc2ccc(OC)cc12 (stereo not drawn) [Chemical 423] | 0.64 | 2.39 | 0.56 | 
O=c1ccc2[n+]([O-])c3ccc(O)cc3oc-2c1 [Chemical 427] | 0.71 | 3.14 | 0.43 | 
Cc1cc(C)nc(NS(=O)(=O)c2ccc(N)cc2)n1 [Chemical 443] |  |  |  | MMTV fold inhibition relative to solvent control (MMTV promoter; [2]): 0.79 fold; GCSF fold inhibition relative to solvent control (G-CSF promoter): 0.60 fold; hGH fold inhibition relative to solvent control (hGH promoter; [2]): 4.76 fold
c1ccc(-c2cccc(-c3ccccn3)n2)nc1 [Chemical 453] |  | 0.79 | 0.58 | MMTV fold induction relative to solvent control (MMTV promoter; [1]): 13.30 fold
c1ncncn1 [Chemical 473] | 0.87 | > 3 | 0.50 | 
O=S(=O)(O)c1ccc2c(N=Nc3ccc(S(=O)(=O)O)c4ccccc34)c(O)c(S(=O)(=O)O)cc2c1 [Chemical 512] |  |  |  | MMTV fold inhibition relative to solvent control (MMTV promoter; [2]): 0.68 fold; GCSF fold inhibition relative to solvent control (G-CSF promoter): 0.81 fold; hGH fold inhibition relative to solvent control (hGH promoter; [2]): 5.26 fold
CC(C=O)=CC=CC(C)=CC=CC=C(C)C=CC=C(C)C=CC1=C(C)CCCC1(C)C [Chemical 519] | 2.76 | 1.15 | 0.68 | 
O=P(O)(O)Oc1c[nH]c2ccc(Br)c(Cl)c12 [Chemical 541] |  |  |  | MMTV fold inhibition relative to solvent control (MMTV promoter; [2]): 0.86 fold; GCSF fold inhibition relative to solvent control (G-CSF promoter): 0.90 fold; hGH fold inhibition relative to solvent control (hGH promoter; [2]): 6.25 fold
CON(C)C(=O)Nc1ccc(Cl)cc1 [Chemical 552] | 0.86 | 0.81 | 5.31 | 
C[C@]12C=CC(=O)C=C1CC[C@@H]1[C@@H]2[C@@H](O)C[C@@]2(C)[C@H]1CC[C@]2(O)C(=O)CO [Chemical 764] |  |  |  | MMTV fold inhibition relative to solvent control (MMTV promoter): 0.59; hGH fold inhibition relative to solvent control (hGH promoter): 4.54
